# Columns and labels:
# Format in all cases: cell-based
# Panc 02.03 = assay: Inhibition of cell proliferation, Panc 02.03; settings: Homo sapiens, pancreas, 72 h, methylene blue or CellTiter-Glo
# Protocol: (§1) II. Inhibition of Cell Proliferation by PLK1 Inhibitors.
# (§2) Exponentially growing cell lines of different tumor origins, cultured in appropriate media containing 10% fetal bovine serum at 37° C. in a 5% CO2 incubator were plated in 96 or 384-well plates. Twenty four hours post-plating, cells were treated with different concentrations of test compounds ranging from 20 μM to 0.04 nM. Several wells were left untreated as a control. Seventy two hours post-treatment, cell numbers were determined using different techniques; 100 μl per well of methylene blue (Sigma M9140) (0.5% in 50:50 Ethanol:water), or 10-100 μl per well of CellTiter-Glo (Promega #G7573), depending on well size. For methylene blue staining, stain was incubated at room temperature for 30 minutes before plates were rinsed and dye solubilized in 1% N-lauroyl sarcosine, sodium salt, (Sigma L5125, in PBS). Plates were read on a microplate reader, measuring the OD at 620 nm. For CellTiter-Glo, plates were incubated at room temperature for 15 minutes and the chemiluminescent signal was read on the Victor V or Envison 2100 reader.
# (§3) Percent inhibition of cell growth was expressed as percent proliferation relative to 100% proliferation (control). […]
# HCC1954 = assay: Inhibition of cell proliferation, HCC1954; settings: Homo sapiens, breast, 72 h, methylene blue or CellTiter-Glo
# Protocol: as §1, §2, §3
# Saos-2 = assay: Inhibition of cell proliferation, Saos-2; settings: Homo sapiens, bone, 72 h, methylene blue or CellTiter-Glo
# Protocol: as §1, §2, §3
# HT29 = assay: Inhibition of cell proliferation, HT29; settings: Homo sapiens, HT-29; Colon; 72 h; methylene blue or CellTiter-Glo
# Protocol: as §1, §2
# (§4) Percent inhibition of cell growth was expressed as percent proliferation relative to 100% proliferation (control). Concentration of test compound that inhibited 50% of cell growth (IC50) was determined by 4 parameter fit of data using XLfit, (value of no cell control was substracted from all samples for background). The data are shown in Table 1 and Table 2 below and represent a compilation of several different experiments each performed using the general parameters outlined above, although minor variations may have been employed in some instances, in Table 1 and Table 2, +=IC50>1 μM; ++=IC50 0.5-1 μM: +++=IC50<0.5 μM.
# Hep3B = assay: Inhibition of cell proliferation, Hep3B; settings: Homo sapiens, liver, 72 h, methylene blue or CellTiter-Glo
# Protocol: as §1, §2, §3
# BT474 = assay: Inhibition of cell proliferation, BT474; settings: Homo sapiens, BT-474; breast; 72 h; methylene blue or CellTiter-Glo
# Protocol: as §1, §2, §3
# SKMEL28 = assay: Inhibition of cell proliferation, SKMEL28; settings: Homo sapiens, SK-MEL-28; skin; 72 h; methylene blue or CellTiter-Glo
# Protocol: as §1, §2, §3
# SK-BR-3 = assay: Inhibition of cell proliferation, SK-BR-3; settings: Homo sapiens, breast, 72 h, methylene blue or CellTiter-Glo
# Protocol: as §1, §2, §3
# T24 = assay: Inhibition of cell proliferation, T24; settings: Homo sapiens, T-24; urinary bladder; 72 h; methylene blue or CellTiter-Glo
# Protocol: as §1, §2, §3
# PANC-1 = assay: Inhibition of cell proliferation, PANC-1; settings: Homo sapiens, pancreatic, 72 h, methylene blue or CellTiter-Glo
# Protocol: as §1, §2, §3
# HN5 = assay: Inhibition of cell proliferation, HN5; settings: 72 h
# Protocol: as §1, §2, §4
# RPMI 8226 = assay: Inhibition of cell proliferation, RPMI 8226; settings: Homo sapiens, leukemia, 72 h, methylene blue or CellTiter-Glo
# Protocol: as §1, §2, §3
# MDA-MB-468 = assay: Inhibition of cell proliferation, MDA-MB-468; settings: Homo sapiens, Breast, 72 h, methylene blue or CellTiter-Glo
# Protocol: as §1, §2, §3
# NCI-H727 = assay: Inhibition of cell proliferation, NCI-H727; settings: Homo sapiens, lung, 72 h, methylene blue or CellTiter-Glo
# Protocol: as §1, §2, §3
# H1299 = assay: Inhibition of cell proliferation, H1299; settings: Homo sapiens, NCI-H1299; Lung; 72 h; methylene blue or CellTiter-Glo
# Protocol: as §1, §2, §3
# HT-1080 = assay: Inhibition of cell proliferation, HT-1080; settings: Homo sapiens, connective tissue, 72 h, methylene blue or CellTiter-Glo
# Protocol: as §1, §2, §3
# MV522 = assay: Inhibition of cell proliferation, MV522; settings: Lung, 72 h, methylene blue or CellTiter-Glo
# Protocol: as §1, §2, §3
# A431 = assay: Inhibition of cell proliferation, A431; settings: Homo sapiens, A-431; skin; 72 h; methylene blue or CellTiter-Glo
# Protocol: as §1, §2, §3
# SKOV-3 = assay: Inhibition of cell proliferation, SKOV-3; settings: Homo sapiens, SK-OV-3; Ovarian; 72 h; methylene blue or CellTiter-Glo
# Protocol: as §1, §2, §4
# HCT116 = assay: Inhibition of cell proliferation, HCT116; settings: Homo sapiens, HCT-116; 72 h treatment; methylene blue or CellTiter-Glo
# T-47D = assay: Inhibition of cell proliferation, T-47D; settings: Homo sapiens, T47D; breast; 72 h; methylene blue or CellTiter-Glo
# Protocol: as §1, §2, §3
# COLO205 = assay: Inhibition of cell proliferation, COLO205; settings: Homo sapiens, COLO 205; Colon; 72 h; methylene blue or CellTiter-Glo
# Protocol: as §1, §2, §4
# Calu1 = assay: Inhibition of cell proliferation, Calu1; settings: Homo sapiens, Calu-1; lung; 72 h; methylene blue or CellTiter-Glo
# Protocol: as §1, §2, §3
# A549-L = assay: Inhibition of cell proliferation, A549-L; settings: lung; 72 h; methylene blue or CellTiter-Glo
# Protocol: as §1, §2, §4
# LNCaP = assay: Inhibition of cell proliferation, LNCaP; settings: Homo sapiens, Prostate, 72 h, methylene blue or CellTiter-Glo
# Protocol: as §1, §2, §3
smiles,measurement,setting,value
C[C@@H](Oc1cc(-n2cnc3cc(-c4cnn(C)c4)ccc32)sc1C(N)=O)c1cccc(OC2CCN(C)CC2)c1Cl [Example 48],IC50,Panc 02.03,< 500 nM
same,IC50,HCC1954,< 500 nM
same,IC50,Saos-2,< 500 nM
same,IC50,HT29,< 500 nM
same,IC50,Hep3B,< 500 nM
same,IC50,BT474,> 1000 nM
same,IC50,SKMEL28,> 1000 nM
same,IC50,SK-BR-3,< 500 nM
same,IC50,T24,< 500 nM
same,IC50,PANC-1,< 500 nM
same,IC50,"HN5; Homo sapiens, Head and neck, Table 2 first HN5 line",< 500 nM
same,IC50,"HN5; head/neck, Table 2 second HN5 line",< 500 nM
same,IC50,RPMI 8226,< 500 nM
same,IC50,MDA-MB-468,< 500 nM
same,IC50,NCI-H727,> 1000 nM
same,IC50,H1299,< 500 nM
same,IC50,HT-1080,< 500 nM
same,IC50,MV522,< 500 nM
same,IC50,A431,< 500 nM
same,IC50,SKOV-3,< 500 nM
same,IC50,HCT116,< 500 nM
same,IC50,T-47D,> 1000 nM
same,IC50,COLO205,< 500 nM
same,IC50,Calu1,< 500 nM
same,IC50,A549-L,< 500 nM
same,IC50,LNCaP,< 500 nM

# Reference: US20100075960A1 (priority 2006, published 2010)
